From patent publication US20250388592A1 (REMYND N.V., priority 2022, published 2025) come the findings set out here.

The assay deals with M17_3TAU(P301L) cells. The assay is described as follows: TAU-induced cytotoxicity (LDH) in the neuroblastoma tauopathy model. Type of assay: cell-based. Particulars: Homo sapiens, 168 h, inhibition of TAU-induced toxicity, 7 days retinoic acid differentiation, LDH readout. Summed up:
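Stably transfected BE-M17 cells expressing human TAU-P301L, seeded in serum-free detection medium, then differentiated with 2.5 μM RA (added in equal volume) for 7 days at 37° C/5% CO2 to induce TAU aggregation. Cytotoxicity = supernatant LDH increase over total LDH; EC50 from dose-dependent inhibition curves.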
Molecule `Cn1cc(Cl)c(CN2CC3(C2)CN(C(=O)NCc2ccc(F)cc2)C3)n1` [Cpd B444] had an EC50 of 0.167 µM. This counts as sub-micromolar.
Molecule `Cc1ccc(CNC2CC3(C2)CC(Nc2nc(Cc4ccc(Cl)cc4)ns2)C3)cc1` (stereo not drawn) [Cpd B321, N-(3-(4-chlorobenzyl)-1,2,4-thiadiazol-5-yl)-N′-(4-methylbenzyl) spiro[3.3]heptane-2,6-diamine] had an EC50 of 0.0086 µM.
Molecule `O=C(OC1CCC(F)(F)CC1)N1CC2(CN(Cc3ccc(F)cc3)C2)C1` [Cpd B133] gave an EC50 of 0.0029 µM.
With `Clc1ccc(Cc2nsc(NC3CC4(CC(NCc5cc(Cl)ccc5Cl)C4)C3)n2)cc1` (stereo not drawn) [Cpd B308, N-(3-(4-chlorobenzyl)-1,2,4-thiadiazol-5-yl)-N′-(2,5-dichlorobenzyl) spiro[3.3]heptane-2,6-diamine] the figure was 0.0038 µM; with `CCOc1ccccc1CNC1CC2(C1)CC(Nc1nc(Cc3ccc(Cl)cc3)ns1)C2` (stereo not drawn) [Cpd B315, N-(3-(4-chlorobenzyl)-1,2,4-thiadiazol-5-yl)-N′-(2-ethoxybenzyl) spiro[3.3]heptane-2,6-diamine], 0.004 µM; with `COc1cccc(CN2CC3(C2)CN(C(=O)Cc2ccc(Cl)cc2)C3)c1` [Cpd B031, 2-(4-chlorophenyl)-1-(6-(3-methoxybenzyl)-2,6-diazaspiro[3.3]heptan-2-yl)ethanone], 0.00201 µM.
The value for `COc1cccc(CN2CC3(C2)CN(C(=O)Oc2ccc(F)cc2)C3)c1` [Cpd B140, 4-fluorophenyl 6-(3-methoxybenzyl)-2,6-diazaspiro[3.3]heptane-2-carboxylate] was 0.0015 µM.
The value for `O=C(Cc1ccc(F)cc1)N1CC2(CN(Cc3ccccc3)C2)C1` [Cpd B002, 1-(6-benzyl-2,6-diazaspiro[3.3]heptan-2-yl)-2-(4-fluorophenyl)ethanone] was 0.00952 µM.
Consider `Fc1cccc(CNC2CC3(C2)CC(Nc2nc(Cc4ccc(Cl)cc4)ns2)C3)c1` (stereo not drawn) [Cpd B323, N-(3-(4-chlorobenzyl)-1,2,4-thiadiazol-5-yl)-N′-(3-fluorobenzyl)spiro[3.3]heptane-2,6-diamine], for which the EC50 worked out at 0.002 µM.
The value for `O=C(NCC1CCC(F)(F)CC1)N1CC2(CN(Cc3ccc(F)cc3)C2)C1` [Cpd B167, N-((4,4-difluorocyclohexyl)methyl)-6-(4-fluorobenzyl)-2,6-diazaspiro[3.3]heptane-2-carboxamide] was 0.00417 µM; that for `Cc1nc(CN2CC3(C2)CN(C(=O)Cc2ccccc2F)C3)cs1` [Cpd B424] was 0.93 µM.
The value for `CC(c1cccc(C(F)(F)F)c1)N1CC2(CN(C(=O)Cc3ccc(F)cc3)C2)C1` (stereo not drawn) [Cpd B015, 2-(4-Fluoro-phenyl)-1-{6-[1-(3-trifluoromethyl-phenyl)-ethyl]-2,6-diaza-spiro[3.3]hept-2-yl}-ethanone] was 0.00954 µM.
`O=C(Cc1ccc(F)cc1)N1CC2(CN(CCc3ccc(F)cc3)C2)C1` [Cpd B027, 2-(4-Fluoro-phenyl)-1-{6-[2-(4-fluoro-phenyl)-ethyl]-2,6-diaza-spiro[3.3]hept-2-yl}-ethanone]: it took 0.0217 µM to reach a half-maximal effect (EC50).
The value for `CC(=O)Nc1ccc(CNC2CC3(C2)CC(Nc2nc(Cc4ccc(Cl)cc4)ns2)C3)cc1` (stereo not drawn) [Cpd B326, N-(4-((6-(3-(4-chlorobenzyl)-1,2,4-thiadiazol-5-ylamino)spiro[3.3]heptan-2-ylamino)methyl)phenyl) acetamide] was 0.145 µM; that for `O=C(CC1CCC(F)(F)CC1)N1CC2(CN(Cc3ccc(F)cc3C(F)(F)F)C2)C1` [Cpd B104, 2-(4,4-difluorocyclohexyl)-1-(6-(4-fluoro-2-(trifluoromethyl)benzyl)-2,6-diazaspiro[3.3]heptan-2-yl)ethan-1-one] was 0.00163 µM.
Molecule `COc1ccc(CCCN2CC3(C2)CN(C(=O)Cc2ccc(Cl)cc2)C3)cc1` [Cpd B059, 2-(4-chlorophenyl)-1-(6-(3-(4-methoxyphenyl)propyl)-2,6-diazaspiro[3.3]heptan-2-yl)ethanone] gave an EC50 of 0.00123 µM.
With `O=C(Cc1cccnc1)N1CC2(CN(Cc3ccc(F)cc3)C2)C1` [Cpd B409] the figure was 3.73 µM; with `Cc1cccc(CN2CC3(C2)CN(C(=O)Cc2ccc(Cl)cc2)C3)n1` [Cpd B038, 2-(4-chlorophenyl)-1-(6-((6-methylpyridin-2-yl)methyl)-2,6-diazaspiro[3.3]heptan-2-yl)ethanone], 0.0139 µM; with `COc1ccc(CCN2CC3(C2)CN(C(=O)Cc2ccc(Cl)cc2)C3)cc1` [Cpd B046, 2-(4-chlorophenyl)-1-(6-(4-methoxyphenethyl)-2,6-diazaspiro[3.3]heptan-2-yl)ethanone], 0.00411 µM.
`CC(C)(C(=O)c1ccccc1)N1CC2(CN(C(=O)Cc3ccc(F)cc3)C2)C1` [Cpd B029, 2-{6-[2-(4-Fluoro-phenyl)-acetyl]-2,6-diaza-spiro[3.3]hept-2-yl}-2-methyl-1-phenyl-propan-1-one] displayed an EC50 of 0.0083 µM.
`Cc1cccnc1CN1CC2(C1)CN(C(=O)C(C)(C)Oc1ccc(Cl)cc1)C2` [Cpd B085] returned a concentration for a half-maximal effect (EC50) of 3.76 µM.
The value for `O=C(Cc1ccc(Cl)cc1)N1CC2(CN(Cc3ccc(C(F)(F)F)o3)C2)C1` [Cpd B040, 2-(4-Chloro-phenyl)-1-[6-(5-trifluoromethyl-furan-2-ylmethyl)-2,6-diaza-spiro[3.3]hept-2-yl]-ethanone] was 0.0404 µM; that for `O=C(Cc1ccc(Cl)cc1)N1CC2(CN(Cc3ccccn3)C2)C1` [Cpd B032, 2-(4-chlorophenyl)-1-(6-(pyridin-2-ylmethyl)-2,6-diazaspiro[3.3]heptan-2-yl)ethanone] was 0.0485 µM.
Turning to `Cn1cnc(CN2CC3(C2)CN(C(=O)NCC2CCC(F)(F)CC2)C3)c1Cl` [Cpd B447], the EC50 turned out to be 0.148 µM.
On to `Cc1cccnc1CN1CC2(C1)CN(S(=O)(=O)Cc1cccc(C(F)(F)F)c1)C2` [Cpd B212], for which a half-maximal response (EC50) required 0.00494 µM.
As for `O=C(Cc1ccc(F)cc1)N1CC2(CN(CCc3cccc(F)c3)C2)C1` [Cpd B024, 2-(4-Fluoro-phenyl)-1-{6-[2-(3-fluoro-phenyl)-ethyl]-2,6-diaza-spiro[3.3]hept-2-yl}-ethanone], the EC50 is 0.0267 µM.
For `O=C(CC1CCC(F)(F)CC1)N1CC2(CN(Cc3c(F)cccc3C(F)(F)F)C2)C1` [Cpd B110], the EC50 was found to be 0.18 µM. This EC50 is about 6.7-fold higher than that of the molecule before.
Turning to `Clc1ccc(Cc2nsc(NC3CC4(CC(NCCc5ccccc5Cl)C4)C3)n2)cc1` (stereo not drawn) [Cpd B334, N-(3-(4-chlorobenzyl)-1,2,4-thiadiazol-5-yl)-N′-(2-chlorophenethyl) spiro[3.3]heptane-2,6-diamine], it took 0.002 µM to reach a half-maximal effect (EC50). Against the preceding molecule, the EC50 is about 90-fold lower.
`Cc1nc(CN2CC3(C2)CN(C(=O)NC2CCC(F)(F)CC2)C3)cs1` [Cpd B450] had an EC50 of 0.116 µM.
`Cc1cccnc1CN1CC2(C1)CN(C(=O)Cc1cccc(C(F)(F)F)c1)C2` [Cpd B079] came in with an EC50 of 0.0134 µM.
As for `Cc1nc(CN2CC3(C2)CN(C(=O)Nc2cccc(C(F)(F)F)c2)C3)cs1` [Cpd B176], the EC50 is 0.0734 µM. This EC50 is about 5.5-fold higher than that of the molecule before.
For `COc1ccccc1CCCN1CC2(C1)CN(C(=O)Cc1ccc(Cl)cc1)C2` [Cpd B058, 2-(4-chlorophenyl)-1-(6-(3-(2-methoxyphenyl)propyl)-2,6-diazaspiro[3.3]heptan-2-yl)ethanone], the midpoint of the response, the EC50, lay at 0.00172 µM.
The value for `Cc1nc(CN2CC3(C2)CN(C(=O)CC2CCC(F)(F)CC2)C3)c[nH]1` [Cpd B125] was 0.705 µM; that for `O=C(COc1ccc(F)cc1)N1CC2(CN(Cc3ccc(F)cc3)C2)C1` [Cpd B098] was 0.0715 µM; that for `CN(Cc1ccccc1)C1CC2(CC(NC(=O)Cc3ccc(Cl)cc3)C2)C1` (stereo not drawn) [Cpd B068, N-(6-(benzyl(methyl)amino)spiro[3.3]heptan-2-yl)-2-(4-chlorophenyl)acetamide] was 0.0134 µM.
In turn, `COc1ccc(CNC(=O)N2CC3(CN(Cc4ncccc4C)C3)C2)cc1` [Cpd B180] had a 50% effective concentration (EC50) below 0.00019 µM.
`Cc1cccnc1CN1CC2(C1)CN(C(=O)NC1CCCCC1)C2` [Cpd B178] showed a 50% effective concentration (EC50) of 0.128 µM.
Molecule `Cc1cnc(CN2CC3(C2)CN(C(=O)CC2CCC(F)(F)CC2)C3)s1` [Cpd B116] registered an EC50 of 0.0722 µM.
The value for `COc1cccc(CN2CC3(C2)CN(C(=O)Nc2ccc(OC(F)F)cc2)C3)c1` [Cpd B186] was 0.034 µM; that for `Cc1nc(CN2CC3(C2)CN(C(=O)OC2CCC(F)(F)CC2)C3)co1` [Cpd B143] was 0.109 µM; that for `O=C(Cc1ccccc1F)N1CC2(CN(Cc3ccc(F)cc3)C2)C1` [Cpd B093] was 0.0746 µM.
Molecule `Clc1ccc(Cc2nsc(NC3CC4(CC(NCCc5cccc(Cl)c5)C4)C3)n2)cc1` (stereo not drawn) [Cpd B332, N-(3-(4-chlorobenzyl)-1,2,4-thiadiazol-5-yl)-N′-(3-chlorophenethyl) spiro[3.3]heptane-2,6-diamine] registered a concentration for a half-maximal effect (EC50) of 0.002 µM.
The value for `COc1cccc(CN2CC3(C2)CN(C(=O)Cc2ccc(F)cc2)C3)c1` [Cpd B008, 2-(4-Fluoro-phenyl)-1-[6-(3-methoxy-benzyl)-2,6-diaza-spiro[3.3]hept-2-yl]-ethanone] was 0.004 µM.
As to `O=C(CC1CCC(F)(F)CC1)N1CC2(CN(Cc3ccc(F)cc3F)C2)C1` [Cpd B105], the EC50 is 0.0026 µM.
Take `Cc1cc(CNC2CC3(C2)CC(Nc2nc(Cc4ccc(Cl)cc4)ns2)C3)ccc1F` (stereo not drawn) [Cpd B309, N-(3-(4-chlorobenzyl)-1,2,4-thiadiazol-5-yl)-N′-(4-fluoro-3-methylbenzyl) spiro[3.3]heptane-2,6-diamine]: the EC50 turned out to be 0.012 µM. Against the preceding molecule, the EC50 is about 4.6-fold higher.
`Cc1ncc(CN2CC3(C2)CN(C(=O)CC2CCC(F)(F)CC2)C3)s1` [Cpd B456]: the EC50 amounted to 0.0739 µM.
In the case of `O=C(Cc1ccc(Cl)cc1)N1CC2(CN(CCc3cccc(F)c3)C2)C1` [Cpd B045, 2-(4-chlorophenyl)-1-(6-(3-fluorophenethyl)-2,6-diazaspiro[3.3]heptan-2-yl)ethanone], the EC50 amounted to 0.0116 µM.
`O=C(OC1CCC(F)(F)CC1)N1CC2(CN(Cc3ccc(Cl)cc3F)C2)C1` [Cpd B150] came in with an EC50 below 0.00019 µM.

What is called EC50 is the concentration needed to bring the measured effect to its halfway point.
